One test relates to Male C57BL/6N mice. As to the kind of experiment: Triglyceride absorption suppression after fat loading (in vivo DGAT1 inhibitory effect). The following applies: Mus musculus, po; dose of 10 mg/kg or lower, orally administered, mice fasted overnight, plasma triglyceride after fat loading; read-out: Triglyceride absorption suppressive activity. The protocol:
The DGAT1 enzyme is important for the digestion and absorption of triglycerides, and the inhibition of DGAT1 in the small intestine suppresses the absorption of triglycerides. The in vivo activity of its DGAT1 inhibitory effect was evaluated with the suppressed absorption of triglycerides after fat loading as an index. Male C57BL/6N mice (7-12 weeks old, body weight: 17-25 g, Charles River Laboratories Japan Inc.) fasted overnight were assigned to Vehicle group 1, Vehicle group 2, and each test compound group, to which a vehicle (0.5% methylcellulose) or each test compound (1 to 10 mg/kg) suspended in vehicle was orally administered (5 mL/kg). After a given time, a lipoprotein lipase inhibitor (Pluronic-F127: Sigma-Aldrich Corp., 1 g/kg, 20% by weight dissolved in saline) was intraperitoneally administered (5 mL/kg) to each group. Immediately thereafter, distilled water for the Vehicle group 1 or a 20% fat-containing emulation (Intralipid 20%: TERUMO CORP., Japan) for the Vehicle group 2 and the compound groups were orally administered thereto (0.2 mL/mouse). After a given time of 1 to 4 hours after administration, blood was collected from the tail vein or the right ventricle, and plasma was immediately separated and collected. Then, the triglyceride concentration in plasma was measured using a commercially available kit (Triglyceride E-Test Wako: Wako Pure Chemical Industries, Ltd.). In this method, the administration of the lipoprotein lipase inhibitor suppresses the hydrolysis of triglycerides in the blood such that the triglycerides are accumulated in the blood. These triglycerides are derived from two origins: exogenous triglycerides absorbed in the gastrointestinal tract and endogenous triglycerides released from the liver. The triglyceride absorption suppressive activity of each test compound was calculated based on the equation shown below by removing the influence of the endogenous triglycerides. In this context, each test compound was separately confirmed to have no influence on the concentration of the endogenous triglycerides.
Triglyceride absorption suppressive activity (%)=100−[(Triglyceride concentration of each test compound group)−(Triglyceride concentration of Vehicle group 1)]/[(Triglyceride concentration of Vehicle group 2)−(Triglyceride concentration of Vehicle group 1)]×100

The target in a further test is T1, DGAT1 enzyme (Homo sapiens, UniProt O75907).
T1 construct: made in house
T1 sequence (O75907 1-488): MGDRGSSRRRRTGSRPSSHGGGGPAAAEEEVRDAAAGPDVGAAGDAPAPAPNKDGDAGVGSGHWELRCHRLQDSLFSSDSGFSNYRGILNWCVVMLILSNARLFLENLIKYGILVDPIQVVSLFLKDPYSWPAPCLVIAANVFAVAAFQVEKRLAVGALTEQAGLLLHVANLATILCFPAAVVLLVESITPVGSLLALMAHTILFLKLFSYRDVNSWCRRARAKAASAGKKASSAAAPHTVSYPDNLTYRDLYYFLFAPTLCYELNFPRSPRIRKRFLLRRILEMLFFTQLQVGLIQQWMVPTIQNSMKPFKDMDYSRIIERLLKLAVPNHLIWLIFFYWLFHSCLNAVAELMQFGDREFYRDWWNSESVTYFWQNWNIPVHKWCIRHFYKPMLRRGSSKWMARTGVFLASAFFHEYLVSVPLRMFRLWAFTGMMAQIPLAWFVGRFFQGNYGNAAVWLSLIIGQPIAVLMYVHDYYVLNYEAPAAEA
As to the kind of experiment: DGAT1 inhibitory activity test. It is filed as biochemical. The following applies: test compound concentration of 0.05 μg/ml; read-out: Inhibitory Rate. The protocol: DGAT1 enzyme was prepared and stored according to the method described in US2007/0249620.
(2) DGAT1 Inhibitory Activity Test
A reaction solution having the following composition was incubated at room temperature (23° C.) for 30 minutes: 175 mM Tris-HCl (pH 8.0), 8 mM MgCl2, 1 mg/ml BSA, 0.3 mM 1,2-dioleoyl-sn-glycerol (10-fold concentration of EtOH solution, 10% added), 10 μM [^14C]-oleoyl-CoA (approximately 50 mCi/mmol), 0.5% Triton X-100, the DGAT1 enzyme (10 μg) obtained in Test Example 1(1), and a test compound or vehicle (DMSO/MeOH, 7:3 solution, 5% added), […] in total. A reaction stop solution ([…] consisting of isopropanol/1-heptane/water (80:20:2, v/v/v) was added to the reaction solution and stirred. Subsequently, water (30 μl) and 1-heptane (100 μl) were added thereto and stirred. The 1-heptane layer (50 μl) was spotted onto a TLC plate and developed with a developing solvent consisting of 1-hexane/diethyl ether/acetic acid (85:15:1, v/v/v). The radioactivity of the triglyceride fraction was quantified using BAS2000 Bio Image Analyzer (FUJIFILM) and compared with the control. The inhibitory activity of the test compound was calculated according to the formula shown below. In this context, the radioactivity at no reaction (0 minute incubation) was used as background. Inhibitory Rate=100−[(Radioactivity of sample supplemented with test compound)−(Background)]/[(Radioactivity of control)−(Background)]×100

With `O=C(O)C[C@H]1CC[C@H](OC(=O)N2CCc3cc(NC(=O)Nc4ccccc4F)ccc3C2)C1` (relative stereo) [Example 7, trans-6-[3-(2-fluoro-phenyl)-ureido]-3,4-dihydro-1H-isoquinoline-2-carboxylic acid 3-carboxymethyl-cyclopentyl ester], the inhibition in vivo at up to 10 mg/kg in the test on Male C57BL/6N mice was at least 60%. For the same molecule, the inhibition at 0.05 µg/mL at DGAT1 enzyme was at least 50%.
Turning to `C[C@H]1C[C@H](CC(=O)O)CC[C@H]1OC(=O)N1CCc2cc(NC(=O)Nc3ccccc3F)ccc2C1` (relative stereo) [Example 15, 6-[3-(2-fluoro-phenyl)-ureido]-3,4-dihydro-1H-isoquinoline-2-carboxylic acid t-4-carboxymethyl-c-2-methyl-r-1-cyclohexyl ester], in the test with Male C57BL/6N mice, the inhibition in vivo at up to 10 mg/kg is at least 60%. For the same molecule, the inhibition at 0.05 µg/mL at DGAT1 enzyme was at least 50%.
On to `C[C@@H]1C[C@H](CC(=O)O)CC[C@H]1OC(=O)N1CCc2cc(NC(=O)Nc3ccccc3F)ccc2C1` (relative stereo) [Example 16, 6-[3-(2-fluoro-phenyl)-ureido]-3,4-dihydro-1H-isoquinoline-2-carboxylic acid t-4-carboxymethyl-t-2-methyl-r-1-cyclohexyl ester], for which the inhibition in vivo at up to 10 mg/kg in the test on Male C57BL/6N mice was at least 60%. Also, the inhibition at 0.05 µg/mL on DGAT1 enzyme was at least 50%.
Regarding `CCOc1cccc(NC(=O)Nc2ccc3c(c2)CCN(C(=O)O[C@@H]2CC[C@@H](CC(=O)O)C[C@H]2C)C3)c1` (relative stereo) [Example 99, 6-[3-(3-ethoxy-phenyl)-ureido]-3,4-dihydro-1H-isoquinoline-2-carboxylic acid t-4-carboxymethyl-t-2-methyl-r-1-cyclohexyl ester], the inhibition in vivo at up to 10 mg/kg with Male C57BL/6N mice was at least 60%. Also, the inhibition at 0.05 µg/mL on DGAT1 enzyme is at least 50%.
Take `CCOc1cccc(NC(=O)Nc2ccc3c(c2)CCN(C(=O)O[C@@H]2CC[C@@H](CC(=O)O)C[C@@H]2C)C3)c1` (relative stereo) [Example 100, 6-[3-(3-ethoxy-phenyl)-ureido]-3,4-dihydro-1H-isoquinoline-2-carboxylic acid t-4-carboxymethyl-c-2-methyl-r-1-cyclohexyl ester]: the inhibition in vivo at up to 10 mg/kg in the test with Male C57BL/6N mice is at least 60%. Also, at DGAT1 enzyme, the inhibition at 0.05 µg/mL was at least 50%.
For the molecule `COc1cccc(NC(=O)Nc2ccc3c(c2)CCN(C(=O)O[C@@H]2CC[C@@H](CC(=O)O)C[C@H]2C)C3)c1` (relative stereo) [Example 101, 6-[3-(3-methoxy-phenyl)-ureido]-3,4-dihydro-1H-isoquinoline-2-carboxylic acid t-4-carboxymethyl-t-2-methyl-r-1-cyclohexyl ester], the inhibition in vivo at up to 10 mg/kg with Male C57BL/6N mice was at least 60%. For the same molecule, the inhibition at 0.05 µg/mL on DGAT1 enzyme was at least 50%.
The matching figures for `O=C(O)C[C@H]1CC[C@H](OC(=O)N2CCc3cc(NC(=O)Nc4ccccc4F)ccc3C2)CC1` [Example 2, trans-6-[3-(2-fluoro-phenyl)-ureido]-3,4-dihydro-1H-isoquinoline-2-carboxylic acid 4-carboxymethyl-cyclohexyl ester]: at least 60% and at least 50%.
For the molecule `O=C(O)CC1CCC(NC(=O)N2CCc3cc(NC(=O)Nc4ccccc4F)ccc3C2)CC1` (centres unmarked) [Example 5, [4-({6-[3-(2-fluoro-phenyl)-ureido]-3,4-dihydro-1H-isoquinoline-2-carbonyl}-amino)-cyclohexyl]-acetic acid], the inhibition in vivo at up to 10 mg/kg in the test on Male C57BL/6N mice is at least 60%. Also, the inhibition at 0.05 µg/mL at DGAT1 enzyme is at least 50%.
As for `O=C(Nc1ccc2c(c1)CCN(C(=O)O[C@H]1CC[C@H](C(=O)O)CC1)C2)Nc1ccccc1F` [Example 8, trans-6-[3-(2-fluoro-phenyl)-ureido]-3,4-dihydro-1H-isoquinoline-2-carboxylic acid 4-carboxy-cyclohexyl ester], the inhibition in vivo at up to 10 mg/kg with Male C57BL/6N mice is at least 60%. Also, at DGAT1 enzyme, the inhibition at 0.05 µg/mL is at least 50%.
The matching figures for `O=C(O)CCC1CCC(OC(=O)N2CCc3cc(NC(=O)Nc4ccccc4F)ccc3C2)CC1` (centres unmarked) [Example 10, 6-[3-(2-fluoro-phenyl)-ureido]-3,4-dihydro-1H-isoquinoline-2-carboxylic acid 4-(2-carboxy-ethyl)-cyclohexyl ester]: at least 60% and at least 50%.
For the molecule `O=C(O)C=C1CCC(OC(=O)N2CCc3cc(NC(=O)Nc4ccccc4F)ccc3C2)CC1` (centres unmarked) [Example 11, 6-[3-(2-fluoro-phenyl)-ureido]-3,4-dihydro-1H-isoquinoline-2-carboxylic acid 4-carboxymethylene-cyclohexyl ester], in the test with Male C57BL/6N mice, the inhibition in vivo at up to 10 mg/kg is at least 60%. Also, the inhibition at 0.05 µg/mL at DGAT1 enzyme is at least 50%.
For the molecule `O=C(O)CC1=CCC(OC(=O)N2CCc3cc(NC(=O)Nc4ccccc4F)ccc3C2)CC1` (centres unmarked) [Example 12, 6-[3-(2-fluoro-phenyl)-ureido]-3,4-dihydro-1H-isoquinoline-2-carboxylic acid 4-carboxymethyl-cyclohex-3-enyl-ester], in the test with Male C57BL/6N mice, the inhibition in vivo at up to 10 mg/kg was at least 60%. Also, the inhibition at 0.05 µg/mL at DGAT1 enzyme is at least 50%.
As for `CC(C)(C(=O)O)[C@H]1CC[C@H](OC(=O)N2CCc3cc(NC(=O)Nc4ccccc4F)ccc3C2)CC1` [Example 13, trans-6-[3-(2-fluoro-phenyl)-ureido]-3,4-dihydro-1H-isoquinoline-2-carboxylic acid 4-(carboxy-1-methyl-ethyl)-cyclohexyl ester], in the test with Male C57BL/6N mice, the inhibition in vivo at up to 10 mg/kg is at least 60%. At DGAT1 enzyme, the inhibition at 0.05 µg/mL was at least 50%.
In the case of `O=C(O)CC1CCC(CC(=O)N2CCc3cc(NC(=O)Nc4ccccc4F)ccc3C2)CC1` (centres unmarked) [Example 17, [4-(2-{6-[3-(2-fluoro-phenyl)-ureido]-3,4-dihydro-1H-isoquinolin-2-yl}-2-oxoethyl)-cyclohexyl]-acetic acid], the inhibition in vivo at up to 10 mg/kg in the test with Male C57BL/6N mice is at least 60%. Further, the inhibition at 0.05 µg/mL at DGAT1 enzyme was at least 50%.
The matching figures for `CCOc1cccc(NC(=O)Nc2ccc3c(c2)CCN(C(=O)O[C@H]2CC[C@H](CC(=O)O)CC2)C3)c1` [Example 20, trans-6-[3-(3-ethoxy-phenyl)-ureido]-3,4-dihydro-1H-isoquinoline-2-carboxylic acid 4-carboxymethyl-cyclohexyl ester]: at least 60% and at least 50%.
As to `O=C(Nc1ccc2c(c1)CCN(C(=O)O[C@H]1CC[C@H](CC(=O)OC[C@H](O)CO)CC1)C2)Nc1ccccc1F` [Example 46, trans-6-[3-(2-fluoro-phenyl)-ureido]-3,4-dihydro-1H-isoquinoline-2-carboxylic acid 4-((R)-2,3-dihydroxy-propoxycarbonylmethyl)-cyclohexyl ester], in the test on Male C57BL/6N mice, the inhibition in vivo at up to 10 mg/kg was at least 60%.
For `CC(C)NC(=O)Nc1ccc2c(c1)CCN(C(=O)O[C@H]1CC[C@H](CC(=O)O)CC1)C2` [Example 81, trans-6-(3-isopropyl-ureido)-3,4-dihydro-1H-isoquinoline-2-carboxylic acid 4-carboxymethyl-cyclohexyl ester], the inhibition in vivo at up to 10 mg/kg with Male C57BL/6N mice is at least 60%.

The values are drawn from US8735425B2, “Tetrahydroisoquinoline derivative” (Daiichi Sankyo Company, Limited, priority 2008, dated 2014).
